{"source": "ChEMBL document CHEMBL1806429", "about": "“Angiotensin-I-converting enzyme inhibitory peptides: Chemical feature based pharmacophore generation” (Eur J Med Chem, 2011)", "note": "pIC50: −log10 of the molar value. Residues, ends and D or L forms follow the SMILES beside them."}
{"molecular_target": "T1, Angiotensin-converting enzyme (Oryctolagus cuniculus, UniProt P12822)", "T1 sequence (P12822 whole entry)": "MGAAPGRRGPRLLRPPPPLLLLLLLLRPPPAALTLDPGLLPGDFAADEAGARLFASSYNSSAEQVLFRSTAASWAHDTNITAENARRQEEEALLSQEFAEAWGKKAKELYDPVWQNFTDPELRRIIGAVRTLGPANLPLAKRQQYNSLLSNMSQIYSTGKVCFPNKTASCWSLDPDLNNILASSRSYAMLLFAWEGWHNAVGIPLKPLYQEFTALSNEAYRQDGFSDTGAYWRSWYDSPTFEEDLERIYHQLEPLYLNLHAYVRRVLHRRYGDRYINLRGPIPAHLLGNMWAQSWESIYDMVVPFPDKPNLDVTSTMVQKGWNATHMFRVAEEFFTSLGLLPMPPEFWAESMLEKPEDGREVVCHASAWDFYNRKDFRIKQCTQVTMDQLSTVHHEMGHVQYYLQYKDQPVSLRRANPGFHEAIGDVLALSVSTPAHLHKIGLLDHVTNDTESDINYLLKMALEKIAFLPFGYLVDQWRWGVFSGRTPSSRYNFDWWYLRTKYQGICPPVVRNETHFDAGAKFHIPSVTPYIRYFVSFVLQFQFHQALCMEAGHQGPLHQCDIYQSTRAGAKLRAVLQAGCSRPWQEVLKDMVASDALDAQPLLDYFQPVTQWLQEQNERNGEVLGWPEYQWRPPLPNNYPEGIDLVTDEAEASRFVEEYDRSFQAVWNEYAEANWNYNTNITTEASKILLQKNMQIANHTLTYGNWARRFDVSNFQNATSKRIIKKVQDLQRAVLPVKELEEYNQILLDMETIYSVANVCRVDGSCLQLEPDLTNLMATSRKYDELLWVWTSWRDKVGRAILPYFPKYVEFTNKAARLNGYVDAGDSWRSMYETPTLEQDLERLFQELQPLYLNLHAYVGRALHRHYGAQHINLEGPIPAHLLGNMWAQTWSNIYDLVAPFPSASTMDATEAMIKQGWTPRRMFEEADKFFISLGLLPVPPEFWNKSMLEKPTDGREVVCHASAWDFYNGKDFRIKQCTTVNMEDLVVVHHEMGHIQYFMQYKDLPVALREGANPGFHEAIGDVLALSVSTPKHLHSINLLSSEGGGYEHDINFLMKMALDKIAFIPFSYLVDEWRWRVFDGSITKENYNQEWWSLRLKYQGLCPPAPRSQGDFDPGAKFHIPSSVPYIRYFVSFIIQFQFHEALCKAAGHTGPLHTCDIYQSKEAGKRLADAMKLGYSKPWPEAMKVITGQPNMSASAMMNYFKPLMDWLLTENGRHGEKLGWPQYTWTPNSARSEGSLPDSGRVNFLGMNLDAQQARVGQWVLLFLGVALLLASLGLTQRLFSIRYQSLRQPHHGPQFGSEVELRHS", "assay": "Inhibition of rabbit lung ACE preincubated for 5 mins by spectrophotometric assay"}
{"smiles": "NCCCC[C@H](NC(=O)CNC(=O)[C@@H](N)Cc1ccccc1)C(=O)O", "note": "(H-Phe-Gly-Lys-OH)", "pIC50": 3.80}
{"smiles": "N[C@@H](Cc1ccccc1)C(=O)N1CCC[C@H]1C(=O)N1CCC[C@H]1C(=O)O", "note": "(H-Phe-Pro-Pro-OH)", "pIC50": 4.11}
{"smiles": "CC(C)C[C@H](N)C(=O)N[C@@H](CC(N)=O)C(=O)N[C@@H](Cc1ccc(O)cc1)C(=O)O", "note": "(H-Leu-Asn-Tyr-OH)", "pIC50": 4.09}
{"smiles": "C[C@H](N)C(=O)N[C@@H](Cc1c[nH]cn1)C(=O)O", "note": "(H-Ala-His-OH)", "pIC50": 2.05}
{"smiles": "CC(C)[C@H](NC(=O)[C@@H](N)Cc1ccccc1)C(=O)N[C@@H](C)C(=O)N1CCC[C@H]1C(=O)O", "note": "(H-FVAP-OH)", "pIC50": 5.00}
{"smiles": "O=C(NCC(=O)N1CCC[C@H]1C(=O)O)[C@@H]1CCCN1", "note": "(H-Pro-Gly-Pro-OH)", "pIC50": 4.01}
{"smiles": "CC(C)C[C@H](NC(=O)[C@@H]1CCCN1C(=O)[C@@H]1CCCN1)C(=O)O", "note": "(H-Pro-Pro-Leu-OH)", "pIC50": 3.37}
{"smiles": "CC(C)[C@H](N)C(=O)N[C@@H](Cc1ccc(O)cc1)C(=O)O", "note": "(H-Val-Tyr-OH)", "pIC50": 5.15}
{"smiles": "CC(C)C[C@H](NC(=O)[C@@H]1CCCN1)C(=O)N[C@@H](Cc1c[nH]c2ccccc12)C(=O)O", "note": "(H-Pro-Leu-Trp-OH)", "pIC50": 4.44}
{"smiles": "CC(C)C[C@H](N)C(=O)N[C@@H](CCCCN)C(=O)N1CCC[C@H]1C(=O)O", "note": "(H-Leu-Lys-Pro-OH)", "pIC50": 6.49}
{"smiles": "C[C@H](NC(=O)[C@@H](N)CCCNC(=N)N)C(=O)N1CCC[C@H]1C(=O)O", "note": "(H-Arg-Ala-Pro-OH)", "pIC50": 4.80}
{"smiles": "CC(C)C[C@H](N)C(=O)N[C@@H](C)C(=O)N1CCC[C@H]1C(=O)O", "note": "(H-Leu-Ala-Pro-OH)", "pIC50": 6.15}
{"smiles": "O=C(N[C@@H](Cc1ccc(O)cc1)C(=O)N1CCC[C@H]1C(=O)O)[C@@H]1CCCN1", "note": "(H-Pro-Tyr-Pro-OH)", "pIC50": 3.66}
{"smiles": "CC(C)[C@H](N)C(=O)N[C@@H](C)C(=O)N1CCC[C@H]1C(=O)O", "note": "(H-Val-Ala-Pro-OH)", "pIC50": 5.70}
{"smiles": "N[C@@H](Cc1ccccc1)C(=O)N1CCC[C@H]1C(=O)O", "note": "(H-Phe-Pro-OH)", "pIC50": 3.68}
{"smiles": "CC(C)[C@H](NC(=O)[C@H](C)N)C(=O)N1CCC[C@H]1C(=O)O", "note": "(H-Ala-Val-Pro-OH)", "pIC50": 3.47}
{"smiles": "CC(C)[C@H](NC(=O)[C@H](C)N)C(=O)O", "note": "(H-Ala-Val-OH)", "pIC50": 3.52}
{"smiles": "NCC(=O)N[C@@H](CCC(=O)O)C(=O)O", "note": "(H-Gly-Glu-OH)", "pIC50": 2.27}
{"smiles": "CC[C@H](C)[C@H](N)C(=O)N1CCC[C@H]1C(=O)O", "note": "(H-Ile-Pro-OH)", "pIC50": 3.82}
{"smiles": "NC(N)=NCCC[C@H](N)C(=O)N[C@@H](CO)C(=O)N1CCC[C@H]1C(=O)O", "note": "(H-Arg-Ser-Pro-OH)", "pIC50": 3.61}
{"smiles": "C[C@H](N)C(=O)NCC(=O)O", "note": "(H-Ala-Gly-OH)", "pIC50": 2.60}
{"smiles": "N[C@@H](Cc1ccc(O)cc1)C(=O)N1CCC[C@H]1C(=O)O", "note": "(H-Tyr-Pro-OH)", "pIC50": 3.14}
{"smiles": "NCCCC[C@H](NC(=O)CN)C(=O)O", "note": "(H-Gly-Lys-OH)", "pIC50": 2.27}
{"smiles": "CC[C@H](C)[C@H](N)C(=O)N[C@@H](Cc1ccc(O)cc1)C(=O)O", "note": "(H-Ile-Tyr-OH)", "pIC50": 5.43}
